We go through 19 compounds from ChEMBL document CHEMBL1201862, “PubChem BioAssay data set” (2004).

As a reminder, the EC50 is the concentration at which the effect is half-maximal. Usually AC50 stands for the midpoint of the concentration-response curve, whichever way the signal moves. Broadly, the CC50 is the concentration at which the toxic effect on the cells reaches its halfway point.

Assay [1] deals with Voltage-dependent T-type calcium channel subunit alpha-1H (Homo sapiens, UniProt O95180). It is filed as functional.
In assay [2] the target is T1, Rac GTPase-activating protein 1 (Homo sapiens, UniProt Q9H0H5).
T1 sequence (Q9H0H5 whole entry): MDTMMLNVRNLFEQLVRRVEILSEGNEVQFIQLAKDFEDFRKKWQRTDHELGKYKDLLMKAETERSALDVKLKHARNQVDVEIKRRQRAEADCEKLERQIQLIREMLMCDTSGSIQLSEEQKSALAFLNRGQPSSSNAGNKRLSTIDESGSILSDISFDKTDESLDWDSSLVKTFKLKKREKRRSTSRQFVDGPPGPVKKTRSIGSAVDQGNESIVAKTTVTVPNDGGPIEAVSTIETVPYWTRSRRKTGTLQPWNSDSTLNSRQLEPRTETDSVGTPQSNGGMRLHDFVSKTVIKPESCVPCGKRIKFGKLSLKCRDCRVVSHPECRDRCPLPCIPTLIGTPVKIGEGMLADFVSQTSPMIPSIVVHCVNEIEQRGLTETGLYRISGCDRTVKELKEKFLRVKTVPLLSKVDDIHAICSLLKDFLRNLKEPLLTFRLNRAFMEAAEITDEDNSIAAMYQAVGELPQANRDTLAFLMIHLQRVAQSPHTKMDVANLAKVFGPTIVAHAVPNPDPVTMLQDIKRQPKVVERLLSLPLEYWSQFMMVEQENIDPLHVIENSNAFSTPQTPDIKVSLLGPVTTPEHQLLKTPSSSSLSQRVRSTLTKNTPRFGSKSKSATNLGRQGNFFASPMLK
Kind of assay: blockers of MgcRacGAP-driven Rac1 GTP hydrolysis – biochemical, ADP Hunter fluorescence, primary and confirmatory, confirmation (AID 624330). It is filed as functional.

Assay [3] addresses T2, Polyadenylate-binding protein 1 (Homo sapiens, UniProt P11940). Kind of assay: MLLE binding blockers, Cy5 peptide tracer – biochemical, fluorescence polarization, Cy5-PAM2 peptide, secondary, miRNA deadenylation inhibitor project, dose response (AID 602260). The assay is classed as functional. Particulars: read-out: IC50_Mean.
The target in assay [4] is Genome polyprotein (dengue virus type 2, UniProt P29990). The experiment in a line: flavivirus cap methylation enzyme inhibition – biochemical, confirmation dose response, primary screen (AID 588689). The assay is classed as functional.
Assay [5] concerns the target T2, Polyadenylate-binding protein 1. The experiment in a line: MLLE domain peptide-binding blockers, IC50 – biochemical, fluorescence polarization, FITC-PAM2 peptide, dose response (AID 602259). The assay is classed as functional. To be noted: read-out: IC50_Mean. A general note: Polarisation of emitted light reports the rotation of a fluorescent probe.
For assay [6], the target named is T3, Fatty acid synthase (Homo sapiens, UniProt P49327). Kind of assay: inhibition of human FAS-TE enzyme activity – biochemical, kinetic fluorescence intensity, dose response (AID 624326).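 Note: rate of fluorescence rise from hydrolysis of a fluorogenic O-methyl fluorescein ester substrate.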 The assay is classed as functional.
Assay [7] addresses T3, Fatty acid synthase. The experiment in a line: inhibition of human FAS-TE enzyme activity – biochemical, endpoint fluorescence intensity, uHTS hits, dose response (AID 624327).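 Note: fluorescence from hydrolysis of an O-methyl fluorescein acyl ester substrate by the enzyme.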 It is filed as functional.
Assay [8] has as its target T4, Cytochrome P450 1A2 (Homo sapiens, UniProt P05177).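 Note: PubChem cytochrome P450 panel assay, CYP1A2 panel member.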
T4 sequence (P05177 whole entry): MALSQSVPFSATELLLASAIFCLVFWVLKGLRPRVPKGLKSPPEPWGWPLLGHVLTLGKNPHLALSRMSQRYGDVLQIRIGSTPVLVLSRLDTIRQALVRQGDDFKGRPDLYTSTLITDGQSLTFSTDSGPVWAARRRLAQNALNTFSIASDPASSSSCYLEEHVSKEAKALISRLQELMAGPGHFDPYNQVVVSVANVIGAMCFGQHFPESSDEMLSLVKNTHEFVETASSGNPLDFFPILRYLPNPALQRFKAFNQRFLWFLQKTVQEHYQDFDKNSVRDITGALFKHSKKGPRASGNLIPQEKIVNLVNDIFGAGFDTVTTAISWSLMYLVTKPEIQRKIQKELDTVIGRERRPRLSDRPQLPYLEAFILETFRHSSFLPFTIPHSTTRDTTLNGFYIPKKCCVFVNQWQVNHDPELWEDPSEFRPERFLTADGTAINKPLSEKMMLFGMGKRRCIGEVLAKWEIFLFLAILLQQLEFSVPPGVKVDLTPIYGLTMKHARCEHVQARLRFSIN

For assay [9], the target named is Cytochrome P450 3A4 (Homo sapiens, UniProt P08684).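 Note: CYP3A4 tested as one member of a cytochrome P450 panel screen.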
A short description of assay [10]: viability loss in THP-1 monocytes – THP-1 cells, cytotoxicity control for Vif-APOBEC3G degradation inhibitor project, dose response (AID 1117359). It is filed as functional. Particulars: THP-1.
Assay [11] has as its target T5, Short transient receptor potential channel 4 (Mus musculus, UniProt Q9QUQ5).
T5 sequence (Q9QUQ5 whole entry): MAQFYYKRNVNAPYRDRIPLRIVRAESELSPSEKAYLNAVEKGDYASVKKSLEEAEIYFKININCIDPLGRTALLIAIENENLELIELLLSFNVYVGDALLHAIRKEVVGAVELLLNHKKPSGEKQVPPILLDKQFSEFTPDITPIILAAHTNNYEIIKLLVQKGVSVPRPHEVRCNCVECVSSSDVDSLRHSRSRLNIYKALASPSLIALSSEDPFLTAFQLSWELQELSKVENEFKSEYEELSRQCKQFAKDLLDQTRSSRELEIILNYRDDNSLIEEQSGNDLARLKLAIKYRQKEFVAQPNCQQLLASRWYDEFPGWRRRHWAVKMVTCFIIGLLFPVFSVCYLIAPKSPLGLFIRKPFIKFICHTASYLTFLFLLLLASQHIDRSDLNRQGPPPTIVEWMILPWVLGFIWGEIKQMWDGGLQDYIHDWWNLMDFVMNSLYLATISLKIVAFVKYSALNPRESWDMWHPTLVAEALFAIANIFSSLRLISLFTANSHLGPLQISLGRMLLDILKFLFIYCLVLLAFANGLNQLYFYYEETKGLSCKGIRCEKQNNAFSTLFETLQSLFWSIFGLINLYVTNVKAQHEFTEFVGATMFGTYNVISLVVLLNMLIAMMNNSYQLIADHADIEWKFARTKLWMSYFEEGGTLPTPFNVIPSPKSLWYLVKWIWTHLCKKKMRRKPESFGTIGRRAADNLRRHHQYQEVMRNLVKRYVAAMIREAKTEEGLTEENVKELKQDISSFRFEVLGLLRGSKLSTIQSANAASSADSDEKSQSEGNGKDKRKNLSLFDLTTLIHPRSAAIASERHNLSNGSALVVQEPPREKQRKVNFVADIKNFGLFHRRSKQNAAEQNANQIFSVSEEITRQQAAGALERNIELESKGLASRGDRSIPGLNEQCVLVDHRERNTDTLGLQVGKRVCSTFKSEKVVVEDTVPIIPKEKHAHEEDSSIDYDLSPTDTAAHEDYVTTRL
Kind of assay: block of DAMGO-driven TRPC4 calcium entry – cell-based, HEK293 TRPC4/mu-opioid, Fluo-4 calcium, dose response (AID 434942).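 Note: potency of inhibitors blocking the TRPC4 calcium response.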 It is filed as functional.

Assay [12] is described as follows: blockers of HIV-1 envelope-mediated cell-cell fusion – cherry-pick, dose response (AID 652057). It is filed as functional, cell-based.
Assay [13] in a line: blockers of HIV-1 ZM109 envelope-driven cell-cell fusion – HeLa effector, CEM target cells, luciferase, cherry-pick, dose response (AID 652058).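 Note: luciferase signal from HIV-1 Env mediated cell-cell fusion of effector and target cells.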 It is filed as functional, cell-based.
Assay [14] can be described thus: HIV-1 AD8 envelope cell-cell fusion blockers – cherry-pick, dose response (AID 652062).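 Note: luciferase signal from cell-cell fusion driven by HIV-1 clade B AD8 Env; potency is for inhibitors of fusion seen as a drop in luminescence.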 The assay is classed as functional, cell-based.

Activity calls are given as the source filed them. Where only a bound is given, the exact number is not on record here.

T2 sequence (P11940 whole entry): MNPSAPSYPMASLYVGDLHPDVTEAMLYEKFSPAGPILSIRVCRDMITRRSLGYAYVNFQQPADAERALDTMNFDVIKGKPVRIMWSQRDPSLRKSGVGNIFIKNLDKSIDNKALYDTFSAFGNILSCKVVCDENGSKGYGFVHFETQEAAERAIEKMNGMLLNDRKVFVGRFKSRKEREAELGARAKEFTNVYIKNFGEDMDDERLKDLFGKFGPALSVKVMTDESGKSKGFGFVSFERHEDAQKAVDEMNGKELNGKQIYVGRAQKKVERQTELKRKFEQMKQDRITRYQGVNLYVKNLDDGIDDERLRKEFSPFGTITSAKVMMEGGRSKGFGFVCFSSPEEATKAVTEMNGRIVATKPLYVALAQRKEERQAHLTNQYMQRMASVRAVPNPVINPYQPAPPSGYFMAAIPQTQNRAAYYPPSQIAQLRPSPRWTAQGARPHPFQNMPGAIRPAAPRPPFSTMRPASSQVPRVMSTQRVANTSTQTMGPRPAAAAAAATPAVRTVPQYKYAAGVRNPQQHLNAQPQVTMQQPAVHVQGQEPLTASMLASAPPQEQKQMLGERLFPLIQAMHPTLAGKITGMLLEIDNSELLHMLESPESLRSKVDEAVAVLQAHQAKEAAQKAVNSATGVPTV
T3 sequence (P49327 whole entry): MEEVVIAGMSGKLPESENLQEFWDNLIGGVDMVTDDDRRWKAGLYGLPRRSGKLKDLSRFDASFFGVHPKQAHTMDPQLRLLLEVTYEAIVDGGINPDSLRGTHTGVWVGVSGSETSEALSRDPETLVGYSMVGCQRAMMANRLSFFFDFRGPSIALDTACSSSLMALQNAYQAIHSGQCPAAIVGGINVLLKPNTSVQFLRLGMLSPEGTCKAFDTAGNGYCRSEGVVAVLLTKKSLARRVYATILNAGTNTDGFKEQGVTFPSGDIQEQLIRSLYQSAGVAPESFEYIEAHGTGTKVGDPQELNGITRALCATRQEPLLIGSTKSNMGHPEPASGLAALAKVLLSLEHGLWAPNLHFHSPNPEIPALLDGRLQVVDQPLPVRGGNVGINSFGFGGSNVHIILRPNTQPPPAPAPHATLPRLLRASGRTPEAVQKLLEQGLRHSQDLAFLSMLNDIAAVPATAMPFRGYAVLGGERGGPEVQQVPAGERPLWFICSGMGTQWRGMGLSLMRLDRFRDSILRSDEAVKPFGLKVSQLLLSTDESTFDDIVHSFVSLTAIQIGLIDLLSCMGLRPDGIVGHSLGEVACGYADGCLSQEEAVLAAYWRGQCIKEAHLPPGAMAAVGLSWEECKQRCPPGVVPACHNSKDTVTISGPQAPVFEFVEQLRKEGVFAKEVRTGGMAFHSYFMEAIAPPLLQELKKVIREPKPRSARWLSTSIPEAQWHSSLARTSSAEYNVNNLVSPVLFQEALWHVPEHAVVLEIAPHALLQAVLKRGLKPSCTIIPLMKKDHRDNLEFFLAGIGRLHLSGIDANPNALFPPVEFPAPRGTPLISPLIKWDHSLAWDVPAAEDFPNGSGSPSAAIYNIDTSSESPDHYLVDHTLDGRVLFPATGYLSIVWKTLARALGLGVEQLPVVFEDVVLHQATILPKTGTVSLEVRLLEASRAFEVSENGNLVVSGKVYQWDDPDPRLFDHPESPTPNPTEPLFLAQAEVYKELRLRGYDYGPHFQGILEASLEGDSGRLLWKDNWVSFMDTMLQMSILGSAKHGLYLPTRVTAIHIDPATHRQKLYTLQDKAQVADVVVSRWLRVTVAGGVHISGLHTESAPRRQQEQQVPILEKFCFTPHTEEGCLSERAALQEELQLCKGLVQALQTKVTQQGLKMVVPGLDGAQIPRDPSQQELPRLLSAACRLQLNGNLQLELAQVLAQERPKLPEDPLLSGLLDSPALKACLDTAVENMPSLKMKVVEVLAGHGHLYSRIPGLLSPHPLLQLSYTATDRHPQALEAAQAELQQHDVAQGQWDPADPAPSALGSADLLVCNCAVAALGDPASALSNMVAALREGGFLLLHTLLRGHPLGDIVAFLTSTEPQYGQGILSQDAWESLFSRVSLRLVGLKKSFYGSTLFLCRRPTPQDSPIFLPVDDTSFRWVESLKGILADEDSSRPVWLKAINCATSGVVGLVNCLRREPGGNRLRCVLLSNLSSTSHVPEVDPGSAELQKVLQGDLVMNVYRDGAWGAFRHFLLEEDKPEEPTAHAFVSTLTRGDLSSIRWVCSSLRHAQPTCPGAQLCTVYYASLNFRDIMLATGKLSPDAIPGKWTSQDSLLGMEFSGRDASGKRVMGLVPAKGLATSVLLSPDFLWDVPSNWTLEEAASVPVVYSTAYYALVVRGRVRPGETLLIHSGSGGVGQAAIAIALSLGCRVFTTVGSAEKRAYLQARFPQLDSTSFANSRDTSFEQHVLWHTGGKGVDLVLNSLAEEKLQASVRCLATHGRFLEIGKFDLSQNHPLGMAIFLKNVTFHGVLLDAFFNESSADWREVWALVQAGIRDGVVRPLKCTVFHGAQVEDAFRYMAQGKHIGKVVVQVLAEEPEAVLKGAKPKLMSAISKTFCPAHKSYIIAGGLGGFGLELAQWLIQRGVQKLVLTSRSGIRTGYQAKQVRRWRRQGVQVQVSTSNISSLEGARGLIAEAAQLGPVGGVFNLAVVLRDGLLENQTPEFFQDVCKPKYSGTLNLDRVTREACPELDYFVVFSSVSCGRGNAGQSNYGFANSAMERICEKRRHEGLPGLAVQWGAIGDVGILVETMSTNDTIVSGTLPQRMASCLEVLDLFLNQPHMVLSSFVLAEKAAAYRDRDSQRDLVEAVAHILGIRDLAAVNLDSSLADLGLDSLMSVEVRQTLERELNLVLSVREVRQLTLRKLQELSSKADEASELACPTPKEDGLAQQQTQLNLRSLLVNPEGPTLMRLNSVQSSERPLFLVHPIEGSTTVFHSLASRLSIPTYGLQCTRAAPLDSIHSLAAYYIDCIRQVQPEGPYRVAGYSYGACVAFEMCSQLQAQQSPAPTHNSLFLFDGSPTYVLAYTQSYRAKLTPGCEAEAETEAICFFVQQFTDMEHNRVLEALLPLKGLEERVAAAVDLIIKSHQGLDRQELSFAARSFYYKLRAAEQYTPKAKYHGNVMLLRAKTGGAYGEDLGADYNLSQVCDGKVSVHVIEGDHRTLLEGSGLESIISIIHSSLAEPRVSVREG
Cytochrome P450 3A4, sequence (P08684 whole entry): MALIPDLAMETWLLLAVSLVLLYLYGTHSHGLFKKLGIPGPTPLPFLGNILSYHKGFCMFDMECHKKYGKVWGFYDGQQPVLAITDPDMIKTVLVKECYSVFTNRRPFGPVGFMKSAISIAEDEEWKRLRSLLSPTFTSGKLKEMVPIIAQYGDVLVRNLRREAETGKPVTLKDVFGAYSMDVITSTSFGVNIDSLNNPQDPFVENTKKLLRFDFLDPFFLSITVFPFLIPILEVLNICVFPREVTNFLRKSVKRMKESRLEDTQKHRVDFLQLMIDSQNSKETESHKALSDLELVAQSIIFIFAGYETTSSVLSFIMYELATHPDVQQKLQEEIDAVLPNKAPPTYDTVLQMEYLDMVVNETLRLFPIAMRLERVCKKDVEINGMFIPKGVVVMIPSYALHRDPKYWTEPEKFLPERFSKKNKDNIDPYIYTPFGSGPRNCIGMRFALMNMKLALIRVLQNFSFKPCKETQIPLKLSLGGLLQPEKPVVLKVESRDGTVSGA
Genome polyprotein, sequence (P29990 2492-3391 limits assumed): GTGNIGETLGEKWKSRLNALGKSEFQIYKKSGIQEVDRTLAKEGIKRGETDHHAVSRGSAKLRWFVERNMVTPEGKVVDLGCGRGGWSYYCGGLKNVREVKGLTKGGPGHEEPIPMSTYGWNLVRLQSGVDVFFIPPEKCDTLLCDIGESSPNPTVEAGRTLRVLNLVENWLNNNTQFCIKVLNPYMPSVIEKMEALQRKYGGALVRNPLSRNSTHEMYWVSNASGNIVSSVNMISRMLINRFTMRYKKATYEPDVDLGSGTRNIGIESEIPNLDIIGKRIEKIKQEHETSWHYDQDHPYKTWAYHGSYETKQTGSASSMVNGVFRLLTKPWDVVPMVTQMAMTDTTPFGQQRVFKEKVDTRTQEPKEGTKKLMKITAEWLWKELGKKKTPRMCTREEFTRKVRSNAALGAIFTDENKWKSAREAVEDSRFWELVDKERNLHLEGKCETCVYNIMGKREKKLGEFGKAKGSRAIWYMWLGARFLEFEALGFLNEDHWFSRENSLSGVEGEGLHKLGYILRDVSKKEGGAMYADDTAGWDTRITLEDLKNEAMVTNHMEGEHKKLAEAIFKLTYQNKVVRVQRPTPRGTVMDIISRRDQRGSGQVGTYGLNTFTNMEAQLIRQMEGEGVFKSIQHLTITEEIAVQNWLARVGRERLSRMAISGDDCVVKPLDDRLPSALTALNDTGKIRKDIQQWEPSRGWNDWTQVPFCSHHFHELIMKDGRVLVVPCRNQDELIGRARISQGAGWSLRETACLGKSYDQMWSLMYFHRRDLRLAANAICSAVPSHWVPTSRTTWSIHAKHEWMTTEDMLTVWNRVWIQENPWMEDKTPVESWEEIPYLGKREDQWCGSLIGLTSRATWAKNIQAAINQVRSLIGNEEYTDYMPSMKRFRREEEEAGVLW

`Cc1ccc(-c2noc(CN(C(=O)C(c3ccccc3)c3ccccc3)C(C)C)n2)cc1`: in [1], the EC50 was 5.14 µM (active).
For `COc1cccc(/C=C2\C(=O)C(=O)c3ccccc32)c1`, the IC50 in assay [2] was 47.3 µM (active); in [3], > 66 µM (inactive); in [4], 12.9 µM (active); in assay [5], > 66 µM (inactive).
Turning to `COc1ccc(N2CCN(C(=O)CC(NC(N)=O)c3cccc(Oc4ccccc4)c3)CC2)cc1` (stereo not drawn), in [1], the half-maximal effective concentration (EC50) is 13.7 µM (active).
On to `Cc1cc(C)c2c(N)c(C(=O)NCC3CCCCC3)sc2n1`, for which the IC50 in [3] and in [5] was > 66 µM (inactive) throughout.
Consider `COC(=O)C(CCCCNC(=O)c1ccc([N+](=O)[O-])cc1)NC(=O)c1ccc([N+](=O)[O-])cc1` (stereo not drawn), for which the IC50 was 55.8 µM (inactive) in assay [6] and 33.6 µM (inactive) in assay [7].
In the case of `CCN(CC)CCSC(=O)C(c1ccccc1)c1ccccc1`, the IC50 in [3] and in assay [5] was > 66 µM (inactive) in each case.
`CC(C)c1ccc(CN(C(=O)C2COc3ccccc3O2)C2CCS(=O)(=O)C2)cc1` (stereo not drawn): the concentration at half-maximal activity (AC50) in [8] was 25.1 µM (inconclusive); in assay [9], 28.2 µM (inconclusive). Besides, the 50% effective concentration (EC50) in [1] is 6.86 µM (active).
As for `O=C(NC(=S)Nc1ccccc1Cl)c1cncc(Br)c1`, the IC50 in [3] and in assay [5] was > 66 µM (inactive) throughout.
Consider `O=C(CC1NCCNC1=O)Nc1ccc(Oc2ccccc2)cc1` (stereo not drawn), for which the 50% effective concentration (EC50) in assay [1] is 8.83 µM (active).
Take `COC(=O)N1C(=O)[C@](Cc2ccccc2)(c2ccccc2)N1C(=O)OC`: the IC50 in [6] was 4.85 µM (active); in assay [7], 5.18 µM (active).
For `Cc1nn(Cc2ccc([N+](=O)[O-])cc2)c(=O)n1N(C)c1ncc(C(F)(F)F)cc1Cl` the same measures were 2.51 µM (active) and 4.91 µM (active).
Regarding `CN1C(C(=O)NCc2cccc(Br)c2)CC2Cn3c(nc4cc(Cl)c(Cl)cc43)C21` (stereo not drawn), the IC50 in assay [6] was 10.3 µM (active); in assay [7] it was 15.2 µM (active).
Regarding `CC1CCN(c2ccc([N+](=O)[O-])c(SCCO)c2)CC1`, the CC50 in [10] was > 40 µM (active).
`CC[C@]1(C(=O)OC)[C@H]2C(=O)N(Cc3ccccc3)C(=O)[C@H]2[C@H]2CN=C(SCC(=O)c3ccccc3)N21`: the IC50 in assay [3] and in [5] was > 66 µM (inactive) in each case.
`O=C(COc1ccc(Cl)cc1)Nc1ccc(C(=O)O)cc1NC(=O)COc1ccc(Cl)cc1`: the IC50 is 7.29 µM (active) in assay [6] and 15.3 µM (active) in assay [7]. Moreover, in assay [11], the concentration for a half-maximal effect (EC50) was 0.0013 µM (active).
In the case of `C[C@H]1CN([C@@H](C)CO)S(=O)(=O)c2ccc(Br)cc2O[C@H]1CN(C)Cc1ccccc1`, the AC50 was 23.5 µM (active) in assay [12], 20.6 µM (active) in [13] and 33.4 µM (active) in assay [14].
Regarding `O=C(c1cccc(C(F)(F)F)c1)C1CCCN(C(=O)CCCN2CCCC2=O)C1` (stereo not drawn), the CC50 in [10] is > 40 µM (active).
Regarding `COc1ccc(NC(=O)Nc2ccc3c(c2)C(=O)N([C@@H](C)CO)C[C@H](C)[C@H](CN(C)S(=O)(=O)c2ccc(C)cc2)O3)cc1`, the results for the AC50 in assay [12], in assay [13] and in assay [14] were 6.5 µM (active), 17.5 µM (active) and 23 µM (active), respectively.
Consider `c1ccc2c3c([nH]c2c1)CNCC3` [TRYPTOLINE], for which the half-maximal cytotoxic concentration (CC50) in assay [10] is 28.7 µM (active).
